Results as given in patent publication US20220135591A1, “HETEROCYCLIC COMPOUNDS AS INHIBITORS OF MONOACYLGLYCEROL LIPASE (MAGL)” (Hoffmann-La Roche Inc., priority 2019, published 2022).

Target: T1, MAGL (recombinant wild-type) (Homo sapiens, UniProt Q99685)
T1 sequence (Q99685 1-303): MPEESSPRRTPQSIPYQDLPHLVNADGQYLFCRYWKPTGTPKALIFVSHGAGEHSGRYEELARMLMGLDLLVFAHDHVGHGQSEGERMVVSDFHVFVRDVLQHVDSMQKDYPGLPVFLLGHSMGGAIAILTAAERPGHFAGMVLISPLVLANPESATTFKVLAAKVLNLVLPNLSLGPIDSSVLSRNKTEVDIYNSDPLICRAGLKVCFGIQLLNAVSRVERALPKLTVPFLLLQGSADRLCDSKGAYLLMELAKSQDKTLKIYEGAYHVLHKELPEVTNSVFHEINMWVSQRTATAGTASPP
Assay: 4-NPA assay: MAGL inhibitory activity by hydrolysis of 4-nitrophenylacetate, absorbance at 405 nm
Format: biochemical
Settings: 4-NPA assay (values without footnote [b])
Procedure: Compounds were profiled for MAGL inhibitory activity by measuring the enzymatic activity of MAGL by following the hydrolysis of 4-nitrophenylacetate resulting in 4-nitrophenol, which absorbs at 405-412 nm (G. G. Muccioli, G. Labar, D. M. Lambert, Chem. Bio. Chem. 2008, 9, 2704-2710). This assay is hereinafter abbreviated “4-NPA assay”.
The assay was carried out in 384 well assay plates (black with clear bottom, non-binding surface treated, Corning Ref. 3655) in a total volume of 40 μL. Compound dilutions were made in 100% DMSO (VWR Chemicals 23500.297) in a polypropylene plate in 3-fold dilution steps to give a final concentration range in the assay from 25 μM to 1.7 nM. 1 μL compound dilutions (100% DMSO) were added to 19 μL MAGL (recombinant wild-type) in assay buffer (50 mM TRIS (GIBCO, 15567-027), 1 mM EDTA (Fluka, 03690-100 mL)). The plate was shaked for 1 min at 2000 rpm (Variomag Teleshake) and then incubated for 15 min at RT. To start the reaction, 20 μL 4-Nitrophenlyacetate (Sigma N-8130) in assay buffer with 6% EtOH was added. The final concentrations in the assay were 1 nM MAGL and 300 μM 4-Nitrophenylacetate. After shaking (1 min, 2000 rpm) and 5 min incubation at RT, the absorbance at 405 nm was measured for a first time (Molecular Devices, SpectraMax Paradigm). A second measurement was then done after incubation for 80 min at RT. From the two measurements, the slope was calculated by subtracting the first from the second measurement.

Row | Compound | IC50
1 | O=C(c1ccc(-c2noc(C3(F)CC3)n2)cc1)N1CCN(c2nc3nc(Cl)ccc3o2)CC1 [Example 26, [4-(5-chlorooxazolo[4,5-b]pyridin-2-yl)piperazin-1-yl]-[4-[5-(1-fluorocyclopropyl)-1,2,4-oxadiazol-3-yl]phenyl]methanone] | 206 nM
2 | CC(C)(C)c1nnc(-c2ccc(C(=O)N3CCN(c4nc5nc(Cl)ccc5o4)CC3)cc2)o1 [Example 30, [4-(5-tert-butyl-1,3,4-oxadiazol-2-yl)phenyl]-[4-(5-chlorooxazolo[4,5-b]pyridin-2-yl)piperazin-1-yl]methanone; 2,2,2-trifluoroacetic acid] | 68 nM
3 | Cc1ccc2oc(N3CCN(C(=O)c4ccc(-c5nnc(C(C)(C)C)o5)cc4)CC3)nc2n1 [Example 31, [4-(5-tert-butyl-1,3,4-oxadiazol-2-yl)phenyl]-[4-(5-methyloxazolo[4,5-b]pyridin-2-yl)piperazin-1-yl]methanone] | 260 nM
4 | CC(C)(O)Cc1nc(-c2ccc(C(=O)N3CCN(c4nc5nc(Cl)ccc5o4)CC3)cc2)no1 [Example 32, [4-(5-chlorooxazolo[4,5-b]pyridin-2-yl)piperazin-1-yl]-[4-[5-(2-hydroxy-2-methyl-propyl)-1,2,4-oxadiazol-3-yl]phenyl]methanone] | 653 nM
5 | Cc1ccc2oc(N3CCN(C(=O)c4ccc(-c5nnc(C(C)(C)CF)o5)cc4)CC3)nc2n1 [Example 33, [4-[5-(2-fluoro-1,1-dimethyl-ethyl)-1,3,4-oxadiazol-2-yl]phenyl]-[4-(5-methyloxazolo[4,5-b]pyridin-2-yl)piperazin-1-yl]methanone] | 498 nM
6 | CC(C)(CF)c1nnc(-c2ccc(C(=O)N3CCN(c4nc5nc(Cl)ccc5o4)CC3)cc2)o1 [Example 34, [4-(5-chlorooxazolo[4,5-b]pyridin-2-yl)piperazin-1-yl]-[4-[5-(2-fluoro-1,1-dimethyl-ethyl)-1,3,4-oxadiazol-2-yl]phenyl]methanone; 2,2,2-trifluoroacetic acid] | 176 nM
7 | Cc1ccc2oc(N3CCN(C(=O)c4ccc(-c5noc(C6(F)CC6)n5)cc4)CC3)nc2n1 [Example 35, [4-[5-(1-fluorocyclopropyl)-1,2,4-oxadiazol-3-yl]phenyl]-[4-(5-methyloxazolo[4,5-b]pyridin-2-yl)piperazin-1-yl]methanone] | 369 nM
8 | Cc1ccc2oc(N3CCN(C(=O)c4ccc(-c5noc(C6(CF)CC6)n5)cc4)CC3)nc2n1 [Example 36, [4-[5-[1-(fluoromethyl)cyclopropyl]-1,2,4-oxadiazol-3-yl]phenyl]-[4-(5-methyloxazolo[4,5-b]pyridin-2-yl)piperazin-1-yl]methanone] | 257 nM
9 | O=C(c1ccc(-c2noc(C3(CF)CC3)n2)cc1)N1CCN(c2nc3nc(Cl)ccc3o2)CC1 [Example 37, [4-(5-chlorooxazolo[4,5-b]pyridin-2-yl)piperazin-1-yl]-[4-[5-[1-(fluoromethyl)cyclopropyl]-1,2,4-oxadiazol-3-yl]phenyl]methanone] | 101 nM
10 | Cc1ccc2oc(N3CCN(C(=O)c4ccc(-c5nc(C(C)(C)C)no5)cc4)CC3)nc2n1 [Example 38, [4-(3-tert-butyl-1,2,4-oxadiazol-5-yl)phenyl]-[4-(5-methyloxazolo[4,5-b]pyridin-2-yl)piperazin-1-yl]methanone] | 45 nM
11 | CC(C)(C)c1noc(-c2ccc(C(=O)N3CCN(c4nc5nc(Cl)ccc5o4)CC3)cc2)n1 [Example 39, [4-(3-tert-butyl-1,2,4-oxadiazol-5-yl)phenyl]-[4-(5-chlorooxazolo[4,5-b]pyridin-2-yl)piperazin-1-yl]methanone] | 19 nM
12 | CC(C)(C)n1cnc(-c2ccc(C(=O)N3CCN(c4nc5nc(Cl)ccc5o4)CC3)cc2)n1 [Example 41, [4-(1-tert-butyl-1,2,4-triazol-3-yl)phenyl]-[4-(5-chlorooxazolo[4,5-b]pyridin-2-yl)piperazin-1-yl]methanone] | 29 nM
13 | Cc1ccc2oc(N3CCN(C(=O)c4ccc(-c5ncn(C(C)(C)C)n5)cc4)CC3)nc2n1 [Example 42, [4-(1-tert-butyl-1,2,4-triazol-3-yl)phenyl]-[4-(5-methyloxazolo[4,5-b]pyridin-2-yl)piperazin-1-yl]methanone] | 86 nM
14 | CC1CN(c2nc3nc(Cl)ccc3o2)CCN1C(=O)c1ccc(-c2noc(C(C)(C)C)n2)cc1 (stereo not drawn) [Example 45, [4-(5-tert-butyl-1,2,4-oxadiazol-3-yl)phenyl]-[4-(5-chlorooxazolo[4,5-b]pyridin-2-yl)-2-methyl-piperazin-1-yl]methanone] | 72 nM
15 | CC1CN(C(=O)c2ccc(-c3noc(C(C)(C)C)n3)cc2)CCN1c1nc2nc(Cl)ccc2o1 (stereo not drawn) [Example 46, [4-(5-tert-butyl-1,2,4-oxadiazol-3-yl)phenyl]-[4-(5-chlorooxazolo[4,5-b]pyridin-2-yl)-3-methyl-piperazin-1-yl]methanone] | 28 nM
16 | Cc1ccc2oc(N3CCN(C(=O)c4ccc(-c5cnn(C(C)(C)C)c5)cc4)CC3)nc2n1 [Example 47, [4-(1-tert-butylpyrazol-4-yl)phenyl]-[4-(5-methyloxazolo[4,5-b]pyridin-2-yl)piperazin-1-yl]methanone] | 37 nM
17 | CC1(Cn2ncnc2-c2ccc(C(=O)N3CCN(c4nc5nc(Cl)ccc5o4)CC3)cc2)CC1 [Example 50, [4-(5-chlorooxazolo[4,5-b]pyridin-2-yl)piperazin-1-yl]-[4-[2-[(1-methylcyclopropyl)methyl]-1,2,4-triazol-3-yl]phenyl]methanone] | 4230 nM
18 | Cc1ccc2oc(N3CCN(C(=O)c4ccc(-c5noc(C6(C)CC6)n5)cc4)CC3)nc2n1 [Example 51, [4-[5-(1-methylcyclopropyl)-1,2,4-oxadiazol-3-yl]phenyl]-[4-(5-methyloxazolo[4,5-b]pyridin-2-yl)piperazin-1-yl]methanone] | 67 nM

These reach a lower IC50. Values come first.

Row | IC50 | Compound
19 | 15 nM | CC(C)(C)n1cc(-c2ccc(C(=O)N3CCN(c4nc5nc(Cl)ccc5o4)CC3)cc2)cn1 [Example 48, [4-(1-tert-butylpyrazol-4-yl)phenyl]-[4-(5-chlorooxazolo[4,5-b]pyridin-2-yl)piperazin-1-yl]methanone]
20 | 13 nM | CC1(Cn2cnc(-c3ccc(C(=O)N4CCN(c5nc6nc(Cl)ccc6o5)CC4)cc3)n2)CC1 [Example 49, [4-(5-chlorooxazolo[4,5-b]pyridin-2-yl)piperazin-1-yl]-[4-[1-[(1-methylcyclopropyl)methyl]-1,2,4-triazol-3-yl]phenyl]methanone]
21 | 12 nM | Cc1ccc2oc(N3CCN(C(=O)c4ccc(-c5ncn(CC(C)(C)C)n5)cc4)CC3)nc2n1 [Example 28, [4-[1-(2,2-dimethylpropyl)-1,2,4-triazol-3-yl]phenyl]-[4-(5-methyloxazolo[4,5-b]pyridin-2-yl)piperazin-1-yl]methanone]
22 | 6 nM | CC1(Cc2nc(-c3ccc(C(=O)N4CCN(c5nc6nc(Cl)ccc6o5)CC4)cc3)no2)CC1 [Example 40, [4-(5-chlorooxazolo[4,5-b]pyridin-2-yl)piperazin-1-yl]-[4-[5-[(1-methylcyclopropyl)methyl]-1,2,4-oxadiazol-3-yl]phenyl]methanone]
23 | 6 nM | CC(C)(C)Cn1cc(-c2ccc(C(=O)N3CCN(c4nc5nc(Cl)ccc5o4)CC3)cc2)nn1 [Example 43, [4-(5-chlorooxazolo[4,5-b]pyridin-2-yl)piperazin-1-yl]-[4-[1-(2,2-dimethylpropyl)triazol-4-yl]phenyl]methanone]
24 | 3 nM | CC(C)(C)Cc1noc(-c2ccc(C(=O)N3CCN(c4nc5nc(Cl)ccc5o4)CC3)cc2)n1 [Example 25, [4-(5-chlorooxazolo[4,5-b]pyridin-2-yl)piperazin-1-yl]-[4-[3-(2,2-dimethylpropyl)-1,2,4-oxadiazol-5-yl]phenyl]methanone]
25 | 3 nM | CC(C)(C)Cn1cnc(-c2ccc(C(=O)N3CCN(c4nc5nc(Cl)ccc5o4)CC3)cc2)n1 [Example 27, [4-(5-chlorooxazolo[4,5-b]pyridin-2-yl)piperazin-1-yl]-[4-[1-(2,2-dimethylpropyl)-1,2,4-triazol-3-yl]phenyl]methanone]
26 | 3 nM | CC(C)(C)Cn1cnc(-c2ccc(C(=O)N3CCN(c4nc5nc(Cl)ccc5o4)CC3)cc2)c1 [Example 29, [4-(5-chlorooxazolo[4,5-b]pyridin-2-yl)piperazin-1-yl]-[4-[1-(2,2-dimethylpropyl)imidazol-4-yl]phenyl]methanone]
27 | 3 nM | CC(C)(C)Cn1ncc(-c2ccc(C(=O)N3CCN(c4nc5nc(Cl)ccc5o4)CC3)cc2)n1 [Example 44, [4-(5-chlorooxazolo[4,5-b]pyridin-2-yl)piperazin-1-yl]-[4-[2-(2,2-dimethylpropyl)triazol-4-yl]phenyl]methanone]
